Where two headings read alike, the source gives them in different places.
Assays:
NFκB / AP-1 = assay: Inhibition of the activation of NFκB and AP-1 (luciferase reporter Jurkat T-cells, PMA/PHA stimulated); format: cell-based, human; settings: stable Jurkat T-cells, read-out: NFκ/AP-1 IC50
Experimental: Stable human Jurkat T-cells containing an NFκB binding site (from the MHC promoter) fused to a minimal SV-40 promoter driving luciferase expression were used in this experiment. Cells were split to 3×10^5 cells/mL every 2-3 days (cell concentration should not exceed 1×10^6 cells/mL to keep the cells proliferating in log phase). These cells were counted, resuspended in fresh medium containing 10% Serum-Plus at a density of 1×10^6 cells/mL and plated in 96 well round bottom plates (200 μL per well) 18 hours prior to starting the experiment.
Compounds of this invention, dissolved in dimethyl sulfoxide (3.3, 0.33 and 0.03 μg/mL), were then added to the 96 well plates containing the cells and the plates are incubated for 0.5 h at 37° C. Then 50 ng/mL of phorbol 12-myristate-13-acetate (PMA) and 1 μg/mL of phytohemagglutinin (PHA) was added to each well and the cells were incubated for an additional 5 h at 37° C. The plates were centrifuged at 2200 RPM for 3 minutes at room temperature and then the medium was removed. To each well was added 60 μL of cell lysis buffer and the plates were left at room temperature for 0.25 h. Then 40 μL of each cell extract was transferred to a black 96 well plate and 50 μL of luciferase substrate buffer was added. Luminescence was immediately measured using a Packard TopCount.
For AP-1, the assay was run as described above for NFκB except stable Jurkat T-cells were used that contained a the -73 collagenase promoter driving luciferase expression. In addition, the concentration of PMA used was 5 ng/mL.

[1] = tested on: DTH response to oxazolone; settings: Morris et al., Transplantation Proceedings 22(Suppl. 1):110-112, 1990; cited from earlier work
[2] = tested on: alloantigen-induced PLN proliferation; settings: Morris et al., Transplantation Proceedings 22(Suppl. 1):110-112, 1990; cited from earlier work
[3] = tested on: DTH response to oxazolone; assay: Delayed type hypersensitivity study (oxazolone contact sensitivity model); format: in vivo, mice; settings: for Right-Left Ear (mean ± SEM): ear thickness difference 24 h after challenge, vehicle 0.30 ± 0.02
Experimental: On day 0, oxazolone (100 μL of a 3% solution) was applied to the shaved abdomen of mice. On day 7, a challenge application of oxazolone was applied (10 μL) around the right ear. […] It was prepared immediately prior to use by suspending it in 0.25% methyl cellulose (Sigma) using a glass-teflon homogenizer. For each dose, 0.1 mL/10 g body weight of the suspension was administered. The compound was prepared at the highest concentration for that study and appropriate dilutions of the stock solution were made so that 0.1 mL/10 g body weight was administered. Twenty four hours later, the difference in right vs. left ear thickness was measured.

[4] = tested on: alloantigen-induced PLN proliferation; assay: Murine popliteal lymph node (PLN) assay, graft vs. host model; format: in vivo, C3H mice (donor BALB/c mice)
From the text: The murine popliteal lymph node (PLN) assay is a graft vs. host model that predicts activity of compounds in blocking human transplant rejection. The delayed-type hypersensitivity response to oxazolone is a standard contact sensitivity model. Both of these models are used routinely to evaluate compounds that are used clinically.
Spleens were removed from donor BALB/c mice and splenocytes were isolated then irradiated (3,000 rads) to prevent donor cell proliferation. After washing and adjusting cell density, 2.5×10^6 cells were injected subcutaneously into the left hind footpad of C3H mice. On day 4, the mice were sacrificed and left popliteal lymph nodes (PLNs) were weighed.
For doses of 10, 20 and 30 mg/kg, appropriate dilutions of the stock solution were made so that 0.1 mL/10 g body weight was administered by intraperitoneal injection.

β-actin = β-actin control cell line (effects on transcription); format: cell-based; settings: control for effects on transcription; FIG. 3
From the text: The results of the above assays for a representative compound of this invention, 2-chloro-4-trifluoromethyl-5-N-(3',5'-bistrifluoromethylphenyl)pyrimidine carboxamide, as percent inhibition versus control are presented in FIG. 3. This figure also indicates activity of β-actin which was employed in these assays as a control cell line indicating effects on transcription.

Compound | IC50 (NFκB / AP-1; Homo sapiens) | also measured
O=C(Nc1cc(C(F)(F)F)cc(C(F)(F)F)c1)c1cnc(Cl)nc1-c1ccccc1 [Example 43, 2-CHLORO-4-PHENYL-5-N-[3',5'-BIS(TRIFLUOROMETHYL)PHENYL]PYRIMIDINE CARBOXAMIDE] | 500 nM | 
2-[N-(1-AMINOCITRACONAMIDE)]-4-TRIFLUOROMETHYL-5-[N-(3',5'-DICHLOROPHENYL)]-PYRIMIDINE-5-CARBOXAMIDE [Example 45] |  | IC50 (NFκB / AP-1): 2000 nM
CCOC(=O)c1cc(NC(=O)c2cnc(Cl)nc2C(F)(F)F)cc(C(F)(F)F)c1 [Example 12, 2-CHLORO-4-TRIFLUOROMETHYL-5-N-(3'-TRIFLUOROMETHYL-5'-ETHOXYCARBONYLPHENYL)PYRIMIDINE CARBOXAMIDE] | 400 nM | 
O=C(Nc1cc(Cl)c(Cl)c(Cl)c1)c1cnc(Cl)nc1C(F)(F)F [Example 6, 2-CHLORO-4-TRIFLUOROMETHYL-5-N-(3',4',5'-TRICHLOROPHENYL)PYRIMIDINE CARBOXAMIDE] | 800 nM | 
CC(=O)Nc1cc(NC(=O)c2cnc(Cl)nc2C(F)(F)F)ccc1F [Example 10, 2-CHLORO-4-TRIFLUOROMETHYL-5-N-(3'-N-ACYL-4'-FLUORO-ANILINE)PYRIMIDINE CARBOXAMIDE] | 1000 nM | 
O=P1(N(CCCl)CCCl)NCCCO1 (stereo not shown) [Cyclophosphamide, reference compound] |  | activity in the contact sensitivity model (in words) [1]: active; activity in the PLN model (in words) [2]: active; Right-Left Ear (mean ± SEM) ([3]; 50 mg/kg (i.p.)): 0.08 ± 0.01; attenuation of the delayed-type response to oxazolone ([3]; 50 mg/kg i.p.): 73%
O=C(Nc1cc(C(F)(F)F)cc(C(F)(F)F)c1)c1cnc(Cl)nc1C(F)(F)F [Example 1, 2-CHLORO-4-TRIFLUOROMETHYL-5-N-[3',5'-BIS(TRIFLUOROMETHYL)PHENYL]PYRIMIDINECARBOXAMIDE] | 30 nM | inhibition of PLN proliferation ([4]; 10 mg/kg, once daily intraperitoneal, day 0 through day 4): 52%; suppression of alloantigen-induced PLN proliferation (in words) ([4]; 10, 20 and 30 mg/kg i.p.): dose-dependent suppression of alloantigen-induced PLN proliferation; Right-Left Ear (mean ± SEM) ([3]; 10 mg/kg (i.p.)): 0.27 ± 0.01; animal deaths during study ([3]; 30 mg/kg (i.p.)): One animal died during study; Right-Left Ear (mean ± SEM) ([3]; 30 mg/kg (i.p.)): 0.13 ± 0.02; attenuation of the delayed-type response to oxazolone ([3]; 30 mg/kg i.p.): 56%; activity of β-actin (control cell line) (β-actin): lack of β-actin activity
Cc1nc(Cl)ncc1C(=O)Nc1cc(C(F)(F)F)cc(C(F)(F)F)c1 [Example 39, 2-CHLORO-4-METHYL-5-N-[3',5'-BIS(TRIFLUOROMETHYL)PHENYL]PYRIMIDINE CARBOXAMIDE] | 75 nM | 
O=C(Nc1cc(C(F)(F)F)cc(C(F)(F)F)c1)c1cnc(Cl)nc1Cl [Example 41, 2,4-DICHLORO-5-N-[3',5'-BIS(TRIFLUOROMETHYL)PHENYL]PYRIMIDINE-5-CARBOXAMIDE] | 600 nM | 
NC(=O)c1cc(NC(=O)c2cnc(Cl)nc2C(F)(F)F)cc(C(F)(F)F)c1 [Example 11, 2-CHLORO-4-TRIFLUOROMETHYL-5-N-(3'-TRIFLUOROMETHYL-5'-CARBOXAMIDEPHENYL) PYRIMIDINE CARBOXAMIDE] | 5000 nM | 
Cc1nc(Cl)nc(Cl)c1C(=O)Nc1cc(C(F)(F)F)cc(C(F)(F)F)c1 [Example 15, 5-N-[3',5'-BIS(TRIFLUOROMETHYL)PHENYL]2,4-DICHLORO-6-METHYLPYRIMIDINE CARBOXAMIDE] | 800 nM | 
O=C(Nc1cc(Cl)cc(Cl)c1O)c1cnc(Cl)nc1C(F)(F)F [Example 8, 2-CHLORO-4-TRIFLUOROMETHYL-5-N-(3',5'-DICHLORO-6'-HYDROXYPHENYL)PYRIMIDINE CARBOXAMIDE] | 6000 nM | 
CN(C(=O)c1cnc(Cl)nc1C(F)(F)F)c1cc(Cl)cc(Cl)c1 [Example 13, 2-CHLORO-4-TRIFLUOROMETHYL-5-N-(3',5'-DICHLOROPHENYL)-5-N-(METHYL)PYRIMIDINE CARBOXAMIDE] | 5000 nM | 
O=C(Nc1ccc(C(F)(F)F)cc1)c1cnc(Cl)nc1C(F)(F)F [Example 2, 2-CHLORO-4-TRlFLUOROMETHYL-5-N(4'-TRIFLUOROMETHYLPHENYL)PYRIMIDINE CARBOXAMIDE] | 750 nM | 
N#Cc1ncc(C(=O)Nc2cc(C(F)(F)F)cc(C(F)(F)F)c2)c(C(F)(F)F)n1 [Example 42, 2-CYANO-4-TRIFLUOROMETHYL-5-N-[3',5'-BIS(TRIFLUOROMETHYL)PHENYL]PYRIMIDINE CARBOXAMIDE] | > 10000 nM | 
